In brackets after ≈: the same amount, converted by molar mass. Read-outs that look alike come from different tables or passages of the source.
Columns and labels:
[1] = system: Pseudomonas aeruginosa (ATCC 27853); assay: MIC, broth microdilution; details: Pseudomonas aeruginosa
ACM1005 ATCC 19004 = assay: MIC, broth microdilution; assay type: cell-based, Acinetobacter baumannii; details: Acinetobacter baumannii, ATCC19004; Table 4; read-out: Compound MIC on Bacterial Strains: Acinetobacter baumannii ACM1005 ATCC 19004
Procedure: (§1) To compare microbiological activity of the test compounds, minimum inhibitory concentrations (MIC.s) were determined. Antibiotic MICs were obtained using the broth microdilution method according to Clinical and Laboratory Standards Institute (CLSI) approved guidelines (Methods for dilution antimicrobial susceptibility tests for bacteria that grow aerobically; approved standard—7th ed. CLSI document M7-A7. Clinical and Laboratory Standards Institute, Wayne, Pa., incorporated herein by reference in its entirety). Antibiotics were dissolved as specified by CLSI (Performance standards for antimicrobial susceptibility testing; Seventeenth informational supplement. CLSI document M100-S17. Clinical and Laboratory Standards Institute, Wayne, Pa., incorporated herein by reference in its entirety), and were serially diluted 2-fold in cation adjusted Mueller Hinton Broth (CaMHB) at 2× concentration. Bacterial inoculums were prepared in CaMHB by suspension of a colony from an agar plate that was prepared the previous day to obtain a final concentration of 5×10^5CFU/ml. The plates were incubated for 18 hours at 35° C. […] MIC.s were determined by reading the turbidity of plate wells using a SpectraMax Plus384 plate reader (Molecular Devices, Sunnyvale, Calif., USA) at 600 nm and were confirmed by visual inspection.

PAM3072 aac(6′)-II = assay: microbe, parasite or virus in culture; assay type: cell-based, Pseudomonas aeruginosa; details: Pseudomonas aeruginosa, Table 5; read-out: Compound MIC on Bacterial Strains: Pseudomonas aeruginosa PAM3072 aac(6′)-II
Procedure: as §1

PAM3073 aac(6′)-I = assay: microbe, parasite or virus in culture; assay type: cell-based, Pseudomonas aeruginosa; details: Pseudomonas aeruginosa, Table 5; read-out: Compound MIC on Bacterial Strains: Pseudomonas aeruginosa PAM3073 aac(6′)-I
Procedure: as §1

ACM1006 acc(6′)-Ib = assay: microbe, parasite or virus in culture; assay type: cell-based, Acinetobacter baumannii; details: Acinetobacter baumannii; Table 4; read-out: Compound MIC on Bacterial Strains: Acinetobacter baumannii ACM1006 acc(6′)-Ib
Procedure: as §1

ECM6003 rmtB = assay: microbe, parasite or virus in culture; assay type: cell-based, Escherichia coli; details: Escherichia coli; Table 3; read-out: Compound MIC on Bacterial Strains: ECM6003 rmtB
Procedure: as §1
(§2) Activity of the test compounds was determined using QC strains and strains with known aminoglycoside resistance mechanisms (TABLE 3). This specific panel contained strains expressing enzymes that covalently modify N2″, N3 and N3′ positions.
The panel also contained a strain expressing ribosomal RNA methylase, RmtB.

[2] = system: Escherichia coli (ATCC 25922); assay: MIC, broth microdilution; details: Escherichia coli
[3] = system: Staphylococcus aureus (ATCC 29213); assay: MIC, broth microdilution; details: Staphylococcus aureus
EC1001 acc(6′)-Ib = assay: microbe, parasite or virus in culture; assay type: cell-based, Escherichia coli; details: Escherichia coli; Table 4; read-out: Compound MIC on Bacterial Strains: Escherichia coli EC1001 acc(6′)-Ib
Procedure: as §1

[4] = system: ECM6007 aac(6′) + aph(2″); assay: microbe, parasite or virus in culture; assay type: cell-based, Escherichia coli; details: Escherichia coli, 18 h; Table 4; read-out: Compound MIC on Bacterial Strains: Escherichia coli ECM6007 aac(6′) + aph(2″)
Procedure: as §1

EC1002 aph(3′)-IV = assay: organism not typed; assay type: cell-based; details: read-out: Compound MIC on Bacterial Strains: EC1002 aph(3′)-IV
Procedure: as §1, §2

[5] = system: Klebsiella pneumonia (ATCC 43816); assay: MIC, broth microdilution; details: Klebsiella pneumoniae, ATCC43816, read-out: Compound MIC on Bacterial Strains: K. pneumonia ATCC 43816
ECM6006 aph(3′)-III = assay: microbe, parasite or virus in culture; assay type: cell-based, Escherichia coli; details: Escherichia coli, read-out: Compound MIC on Bacterial Strains: ECM6006 aph(3′)-III
Procedure: as §1, §2

ECM6010 ant(2″)-I = assay: microbe, parasite or virus in culture; assay type: cell-based, Escherichia coli; details: Escherichia coli, read-out: Compound MIC on Bacterial Strains: ECM6010 ant(2″)-I
Procedure: as §1, §2

ECM6009 aac(3)-II = assay: microbe, parasite or virus in culture; assay type: cell-based, Escherichia coli; details: Escherichia coli, read-out: Compound MIC on Bacterial Strains: ECM6009 aac(3)-II
Procedure: as §1, §2

ECM6011 aph(3′)-I = assay: microbe, parasite or virus in culture; assay type: cell-based, Escherichia coli; details: Escherichia coli, read-out: Compound MIC on Bacterial Strains: ECM6011 aph(3′)-I
Procedure: as §1, §2

Sa 287 aac(6′) + aph(2″) = assay: microbe, parasite or virus in culture; assay type: cell-based, Staphylococcus aureus; details: Staphylococcus aureus, 18 h; Table 5; read-out: Compound MIC on Bacterial Strains: Staphylococcus aureus Sa 287 aac(6′) + aph(2″)
Procedure: as §1

[6] = system: Acinetobacter baumannii (ATCC 19606); assay: MIC, broth microdilution; details: Acinetobacter baumannii, ATCC19606, read-out: Compound MIC on Bacterial Strains: A. baumannii ATCC 19606
[7] = ATCC27853, read-out: Compound MIC on Bacterial Strains: Pseudomonas aeruginosa PAM3034 ATCC 27853
[8] = ATCC25922, read-out: Compound MIC on Bacterial Strains: ECM6000 ATCC 25922
[9] = ATCC29213, read-out: Compound MIC on Bacterial Strains: Staphylococcus aureus SAM1000 ATCC 29213, Table 5

SMILES | MIC [1, 7] [µg/mL] | MIC (PAM3072 aac(6′)-II) [µg/mL] | MIC (PAM3073 aac(6′)-I) [µg/mL] | MIC (ECM6003 rmtB) [µg/mL] | MIC [2, 8] [µg/mL] | MIC [3, 9] [µg/mL] | MIC (EC1002 aph(3′)-IV) [µg/mL] | MIC (ECM6006 aph(3′)-III) [µg/mL] | MIC (ECM6010 ant(2″)-I) [µg/mL] | MIC (ECM6009 aac(3)-II) [µg/mL] | MIC (ECM6011 aph(3′)-I) [µg/mL] | MIC (Sa 287 aac(6′) + aph(2″)) [µg/mL] | also measured
CNC[C@@H]1CCC(N)[C@@H](OC2C(O)C(O[C@H]3OCC(C)(O)[C@H](NC)C3O)[C@H](NC(=O)[C@@H](O)C(O)CN)C[C@@H]2N)O1 (stereo in doubt) [Compound 23, (2S,3R)-4-amino-N-((1R,2S,3S,4R,5S)-5-amino-4-((2R,3R,6S)-3-amino-6-((methylamino)methyl)tetrahydro-2H-pyran-2-yloxy)-2-((2R,3R,4R,5R)-3,5-dihydroxy-5-methyl-4-(methylamino)tetrahydro-2H-pyran-2-yloxy)-3-hydroxycyclohexyl)-2,3-dihydroxybutanamide] | 1 to 8 (≈ 1.72 to 13.8 µM) | > 8 | 1 to 8 (≈ 1.72 to 13.8 µM) | 1 to 8 (≈ 1.72 to 13.8 µM) | 1 to 8 (≈ 1.72 to 13.8 µM) | 1 to 8 (≈ 1.72 to 13.8 µM) | 1 to 8 (≈ 1.72 to 13.8 µM) | 1 to 8 (≈ 1.72 to 13.8 µM) | 1 to 8 (≈ 1.72 to 13.8 µM) | 1 to 8 (≈ 1.72 to 13.8 µM) | 1 to 8 (≈ 1.72 to 13.8 µM) | 1 to 8 | MIC ([1]; ATCC27853, read-out: Compound MIC on Bacterial Strains: P. aeruginosa ATCC 27853): 1 to 8 µg/mL (≈ 1.72 to 13.8 µM); MIC (ACM1005 ATCC 19004): 1 to 8 µg/mL (≈ 1.72 to 13.8 µM); MIC (ACM1006 acc(6′)-Ib): 1 to 8 µg/mL (≈ 1.72 to 13.8 µM); MIC ([2]; ATCC25922, read-out: Compound MIC on Bacterial Strains: E. coli ATCC 25922): < 1 µg/mL; MIC ([2]; ATCC25922, read-out: Compound MIC on Bacterial Strains: Escherichia coli ECM6000 ATCC 25922): 1 to 8 µg/mL (≈ 1.72 to 13.8 µM); MIC ([3]; ATCC29213, read-out: Compound MIC on Bacterial Strains: S. aureus ATCC 29213, QC strain, Table 2): < 1 µg/mL; MIC (EC1001 acc(6′)-Ib): 1 to 8 µg/mL (≈ 1.72 to 13.8 µM); MIC [4]: < 1 µg/mL; MIC [5]: < 1 µg/mL; MIC [6]: > 8 µg/mL
CN[C@@H]1C(O)[C@@H](OC2C(O)C(O[C@H]3O[C@H](CNCCO)CCC3N)[C@@H](N)C[C@H]2NC(=O)[C@@H](O)[C@@H](O)CN)OCC1(C)O (stereo partly shown) [Compound 4] | 1 to 8 (≈ 1.64 to 13.1 µM) | > 8 | 1 to 8 (≈ 1.64 to 13.1 µM) | > 8 | 1 to 8 (≈ 1.64 to 13.1 µM) | 1 to 8 (≈ 1.64 to 13.1 µM) | 1 to 8 (≈ 1.64 to 13.1 µM) | 1 to 8 (≈ 1.64 to 13.1 µM) | 1 to 8 (≈ 1.64 to 13.1 µM) | < 1 | < 1 | 1 to 8 | 
